Laboratory results reported in PubChem BioAssay (NCI).
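Following 48 hours of exposure in 96-well plates, responses at five concentrations were used to interpolate endpoints linearly. Here, GI50 denotes the concentration required for 50% inhibition of growth. TGI: concentration producing complete growth inhibition.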

Assays:
Test in all cases: NCI-60 cell line screen, 48 h
CAKI-1 renal = system: CAKI-1 renal
HCT-116 colon = system: HCT-116 colon
M14 melanoma = system: M14 melanoma
NCI-H460 lung = system: NCI-H460 lung
NCI-H522 lung = system: NCI-H522 lung
SNB-19 CNS = system: SNB-19 CNS
TK-10 renal = system: TK-10 renal
U251 CNS = system: U251 CNS
UACC-257 melanoma = system: UACC-257 melanoma
DU-145 prostate = system: DU-145 prostate

Structure (SMILES)	TGI (CAKI-1 renal) [µM]	TGI (HCT-116 colon) [µM]	TGI (M14 melanoma) [µM]	TGI (NCI-H460 lung) [µM]	TGI (NCI-H522 lung) [µM]	TGI (SNB-19 CNS) [µM]	TGI (TK-10 renal) [µM]	TGI (U251 CNS) [µM]	TGI (UACC-257 melanoma) [µM]	GI50 (CAKI-1 renal) [µM]	GI50 (DU-145 prostate) [µM]	TGI (DU-145 prostate) [µM]	GI50 (HCT-116 colon) [µM]	GI50 (M14 melanoma) [µM]	GI50 (NCI-H460 lung) [µM]	GI50 (SNB-19 CNS) [µM]	GI50 (TK-10 renal) [µM]	GI50 (U251 CNS) [µM]	GI50 (UACC-257 melanoma) [µM]	GI50 (NCI-H522 lung) [µM]
COc1ccc2nc(NC(=O)C(=O)C(C#N)c3ccc(Cl)c(Cl)c3)sc2c1 (centres undefined)	> 100	> 100	> 100	> 100	> 100	> 100	> 100	> 100	> 100											
CN(/N=N/c1nc(OCc2ccccc2)c2[nH]cnc2n1)C(=O)Oc1ccc([N+](=O)[O-])cc1	35.4	16	18.4	31.3		27.9	34	15.3	> 50	10.9	9.02	19.5	8.68	8.87	6.71	9.6	12	7.51	39	
Cc1cccc2nc3cccc(C(=O)NCCN(C)C)c3nc12	15.8	10.8	2.36	16.5		5.27	5.84	4.61	2.61											
O=C(NS(=O)(=O)c1ccccc1)C(Cc1ccccc1)C(Cc1ccccc1)C(=O)NS(=O)(=O)c1ccccc1 (centres undefined)	> 100	> 100	> 100	> 100	> 100	> 100	> 100	> 100	> 100											
CN1CC(=O)N(C)c2nc[nH]c2C1=O			> 100	> 100		> 100	> 100	> 100												
CC12Oc3ccc4ccccc4c3CC1Cc1c(ccc3ccccc13)O2 (centres undefined)	> 100	> 100	> 100	> 100	> 100	> 100	> 100	> 100	> 100											
CC1(C)OC(=O)C=C([O-])O1.CC1(C)OC(=O)C=C([O-])O1.CC[O-].CC[O-].[Ti+4]	> 100	> 100	> 100	> 100	> 100	> 100	> 100	> 100	> 100	> 100			> 100	> 100	> 100	> 100	> 100	> 100	> 100	> 100
O=C(CC1C(=O)Nc2ccccc2S1=O)Nc1ccc(Cl)cc1 (centres undefined)	> 100		> 100	> 100	> 100	> 100	> 100	> 100	> 100											
